Test results from patent publication US7745489B2, “Compositions and methods for inhibition of phospholipase A2 mediated inflammation” (The Regents of the University of California, priority 2002, dated 2010).
“And” between values parts separate entries of the source, which are not always exact repeats. Equal entries are not always repeated. “Also recorded” adds a separate entry of the source. Where two headings read alike, the source gives them in different places. One block for each molecule: values may come before it.

Tests used:
[1] = tested on: formalin induced flinching; test: Formalin induced flinching; assay type: in vivo, rat; conditions: intrathecal pretreatment 10 min; result in words
spontaneous movement = conditions: rat, in vivo
P388D1 cells = test: PGE2 release from stimulated P388D1 macrophages; assay type: cell-based, murine; conditions: for inhibition at 50 µM / IC50: Mus musculus; for inhibition at 50 µM: LPS 1 hour then PAF 15 min, maximal dosage tested 50 μM; for IC50: LPS 18 hr, inhibitor added 30 min prior to stimulation; for Block of PGE2 release: long-term LPS stimulation, 50 μM inhibitor, result in words
Experimental: cPLA2 and iPLA2 are expressed in macrophage cells. It was therefore of interest to determine if the PLA2 inhibitors of the invention acted on either or both of cPLA2 and iPLA2 in macrophages. To that end, P388D1 murine macrophages were maintained at 37° C. in a humidified 10% CO2 atmosphere. Cells were grown in Iscove's Modified Dulbecco's Medium (IMDM with 10% fetal calf serum (HyClone Labs, Provo Utah), 100 units/mL penicillin and 100 μg/mL streptomycin (Invitrogen, Carlsbad Calif.). Cells were routinely passaged every 2-3 days when the cells reached 75-80% confluence. Cells used for stimulation were plated at a density of 10^6 cells per well in standard 12 well tissue culture plates and were allowed to adhere overnight.
Macrophages were stimulated by treating P338D1 cells with either lipopolysaccharide (LPS) alone or LPS combined with platelet activating factor (PAF). Briefly, cells were washed twice with starvation media (IMDM containing 0.2% fetal calf serum, 100 units/mL penicillin and 100 μg/mL streptomycin) and then incubated with 1 mL of starvation media for one hour. Cells were then exposed to either 100 ng/mL LPS for 18 hours or 200 ng/mL LPS for one hour. Cells treated with 200 ng/mL LPS were then exposed to 100 nM PAF for 15 minutes. At the end of the stimulation, the media was removed from the cells, cleared of cellular debris by centrifugation and analyzed for prostaglandin E2 (PGE2) levels by enzyme-linked immunoassay (Cayman Chemical, Ann Arbor Mich.).
Inhibitor compounds were dissolved in DMSO and diluted into starvation media prior to addition to cells; the DMSO concentration was kept below 0.5% v/v in all studies. All inhibitors were added 30 minutes prior to stimulation.

[2] = tested on: carrageenan-induced paw edema; test: Rat carrageenan-induced paw edema assay, ip, acute inflammation; assay type: in vivo; conditions: after 3.5 h; for ED50: Rattus norvegicus, carrageenin paw edema test, ip
Experimental: The experiments were conducted on Fisher 344 female rats weighing 200-260 g. Acute anti-inflammatory activity was measured after 3.5 h by reduction of rat paw carrageenan edema, induced by injection of 0.1 mL carrageenan 2% (K100, commercially available) in sterilized saline intradermally into the right footpad. The examined compounds were administered intraperitoneally (ip) simultaneously. Control animals accepted only vehicle.

cPLA2 = biological target: T1, cPLA2 (Homo sapiens, UniProt P47712); test: cPLA2 activity on TX-100/PAPC mixed micelles, inhibition by 2-oxoamides; assay type: biochemical; conditions: for Inhibition of cPLA2: result in words
T1 sequence (P47712 1-749): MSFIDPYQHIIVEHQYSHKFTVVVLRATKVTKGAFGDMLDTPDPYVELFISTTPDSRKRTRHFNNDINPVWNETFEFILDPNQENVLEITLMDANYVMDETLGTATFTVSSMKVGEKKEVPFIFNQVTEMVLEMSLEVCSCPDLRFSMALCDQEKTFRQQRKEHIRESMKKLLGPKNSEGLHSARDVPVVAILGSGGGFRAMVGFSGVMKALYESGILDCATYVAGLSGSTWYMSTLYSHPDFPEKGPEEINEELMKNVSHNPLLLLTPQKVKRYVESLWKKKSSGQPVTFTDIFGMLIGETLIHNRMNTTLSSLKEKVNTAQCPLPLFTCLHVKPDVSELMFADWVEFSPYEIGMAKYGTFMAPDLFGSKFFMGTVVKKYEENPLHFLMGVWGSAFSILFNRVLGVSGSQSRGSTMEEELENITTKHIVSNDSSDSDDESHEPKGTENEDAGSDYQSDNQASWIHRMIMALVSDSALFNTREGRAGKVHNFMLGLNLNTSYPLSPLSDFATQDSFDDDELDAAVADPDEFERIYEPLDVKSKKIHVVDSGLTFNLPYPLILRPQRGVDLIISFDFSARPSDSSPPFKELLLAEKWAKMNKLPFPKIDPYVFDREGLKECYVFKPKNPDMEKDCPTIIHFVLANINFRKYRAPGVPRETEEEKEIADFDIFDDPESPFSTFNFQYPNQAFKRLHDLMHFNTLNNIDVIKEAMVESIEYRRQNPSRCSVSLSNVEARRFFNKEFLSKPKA

acetic acid writhing = test: Acetic acid writhing test, analgesic activity; assay type: in vivo, rat
Experimental: The acetic acid writhing test was used to assess the analgesic activity in rats (reference drug sodium acetylsalicylate, at 1 mmol/kg, 93.4%). The inhibitors were given ip and 30 min later 1 mL/100 g body weight of 0.6% acetic acid was given ip.

iPLA2 = biological target: T2, iPLA2 (Homo sapiens, UniProt O60733); test: iPLA2 activity mixed micelle assay, inhibition by 2-oxoamides; assay type: biochemical
T2 sequence (O60733 1-806): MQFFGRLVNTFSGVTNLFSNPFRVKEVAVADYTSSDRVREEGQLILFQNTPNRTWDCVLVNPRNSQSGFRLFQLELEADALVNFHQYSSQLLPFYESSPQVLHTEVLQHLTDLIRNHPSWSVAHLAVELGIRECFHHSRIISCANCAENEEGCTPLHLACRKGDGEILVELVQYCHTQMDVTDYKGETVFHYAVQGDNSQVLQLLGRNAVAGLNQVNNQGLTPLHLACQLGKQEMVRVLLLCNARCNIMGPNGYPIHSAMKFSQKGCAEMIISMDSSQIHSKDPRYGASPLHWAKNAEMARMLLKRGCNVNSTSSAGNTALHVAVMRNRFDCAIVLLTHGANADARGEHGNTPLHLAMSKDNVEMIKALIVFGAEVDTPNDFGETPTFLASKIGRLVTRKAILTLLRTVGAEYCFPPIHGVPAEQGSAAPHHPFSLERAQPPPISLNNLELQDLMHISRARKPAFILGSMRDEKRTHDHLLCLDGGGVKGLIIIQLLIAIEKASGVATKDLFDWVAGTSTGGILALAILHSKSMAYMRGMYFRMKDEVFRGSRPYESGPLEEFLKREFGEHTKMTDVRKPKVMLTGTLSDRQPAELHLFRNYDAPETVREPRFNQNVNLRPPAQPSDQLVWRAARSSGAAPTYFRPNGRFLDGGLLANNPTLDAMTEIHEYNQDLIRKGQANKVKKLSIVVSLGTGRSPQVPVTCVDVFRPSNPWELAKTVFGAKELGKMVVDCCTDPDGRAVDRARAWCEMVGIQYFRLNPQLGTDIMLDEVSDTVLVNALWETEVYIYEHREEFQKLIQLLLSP
Text: All of the data above are provided with respect to XI(50), which is the mole fraction of inhibitor in the total substrate interface required to inhibit the enzyme by 50%. Almost all inhibitors of PLA2's partition into the phospholipid surface, because they usually have a hydrophobic nature that helps them bind to the active site of the PLA2. When these inhibitors partition into the surface, an important physical effect called surface dilution comes into play. In this case, the strength of the interaction of PLA2 and an inhibitor depends not on the bulk concentration of the inhibitor (molar units), but on the surface concentration of the inhibitor (mole fraction units).
PLA2 Activity Assays: Following homoginization and centrifugation, the spinal cord supernatants were assayed for cPLA2 or iPLA2 activity using the group specific assays developed in our laboratory (Yang et al., Biochem; 269: 278-288, 1999). Briefly the cPLA2 assay conditions were: 100 μM lipid PAPC/PIP2 (97/3) doping with 1% ^14C labeled PAPC in 400 μM triton X-100 mixed micelles, 100 mM Hepes, pH 7.5, 0.08 mM CaCl2, 0.1 mg/ml BSA and 2 mM DTT. iPLA2 assay conditions were: 100 μM DPPC doping with 1% ^14C labeled DPPC in 400 μM triton X-100 mixed micelles, 100 mM Hepes, pH 7.5, 5 mM EDTA, and 1 mM ATP. The total volume for each assay is 500 μL: 200 μL lipid, 250 μL assay buffer, 50 μL sample. In each case the amount of calcium or EDTA added was adjusted to account for the addition of EDTA in the lysis buffer to give the final concentrations listed above.
Lipid preparation: Lipid was dried under N2 and lyopholized for at least one hour to remove all traces of chloroform. Lipid was then resuspended in […] and triton X-100 and micelles were created by repeated vortexing and heating in hot water until the solution clarified. Samples were incubated with substrate for one hour at 40° C. The assay was then terminated and fatty acid extracted by the modified Dole assay. The amount of radioactive fatty acid released in the assay was determined by scintillation counting. Following analysis the data for the cPLA2 assay was adjusted for contaminating iPLA2 activity as described by Yang, et al. (Yang, et al., Anal. Biochem. 269: 278-288 (1999).

[3] = mixed micelles TX-100 400 μM, PAPC 97 μM, PIP2 3 μM (0.6 mole %)
[4] = Table 3, at 0.020 mole fraction

SMILES: O=C1O/C(=C/Br)CCC1c1cccc2ccccc12 (stereo not shown) [BEL, bromoenol lactone]
Effect on formalin induced flinching [1]: suppression
Effect on spontaneous movement / normal motor function (spontaneous movement): did have such an effect
Effect on spontaneous movement / normal motor function (spontaneous movement; 60 min): suppressed spontaneous movement

SMILES: CCCCCCCCCCCCCCC(=O)C(=O)NCCCC(=O)O [OA1, 4-[(2-oxohexadecanoyl)amino]butanoic acid]
inhibition at 50 µM (P388D1 cells): ~60%
IC50 (P388D1 cells): 7.8 µM
Block of PGE2 release (P388D1 cells): completely block
ED50 [2]: 10 µmol/kg
XI(50) (mole fraction) (cPLA2; Table 2, iPLA2): 0.017 ± 0.009 mole fraction
XI(50) (cPLA2; [3]): 0.017±0.009 mole fraction
Analgesic activity (acetic acid writhing; ip dose of 0.01 mmol/kg): 92.7%

SMILES: CCCCCCCCCCC(=O)C(=O)N[C@@H](CCCC)CCC(=O)O [OA4, (4S)-4-[(2-Oxododecanoyl)amino]octanoic acid]
melting point: 50 to 52 °C
inhibition at 50 µM (P388D1 cells): ~60%
IC50 (P388D1 cells): 5.8 µM
Block of PGE2 release (P388D1 cells): completely block
ED50 [2]: 100 µmol/kg
XI(50) (mole fraction) (cPLA2; Table 2, iPLA2): 0.009 ± 0.004 mole fraction
XI(50) (cPLA2; [3]): 0.009±0.004 mole fraction and 0.009 mole fraction
XI(50) (cPLA2; mixed micelles TX-100 3 mM, PAPC 1 mM, no PIP2 present): 0.0027±0.0012 mole fraction
Inhibition of cPLA2 (cPLA2): quite potent
Analgesic activity (acetic acid writhing; ip dose of 0.1 mmol/kg): 63%

SMILES: CCC(=O)C(=O)NCCCC(=O)OC [OA19]
XI(50) (mole fraction) (iPLA2; Table 3): 0.0158 ± .0009 mole fraction
Inhibition of cPLA2 (cPLA2): no inhibitory activity; also recorded: no measurable inhibition

SMILES: COC(=O)CCCNC(=O)C(=O)CCCCc1ccccc1 [OA20]
Highest Conc. (mole fraction) w/ % inhibition (iPLA2; Table 3, at 0.091 mole fraction): 0.091: 55% ± 4%
Inhibition of cPLA2 (cPLA2): do not inhibit

SMILES: CCC(=O)C(N)=O [OA21]
Highest Conc. (mole fraction) w/ % inhibition (iPLA2; [4]): 0.020: 38% ± 6%

SMILES: COc1ccc2c(c1)c(CC(=O)O)c(C)n2C(=O)c1ccc(Cl)cc1 [indomethacin, reference compound]
% inhibition of carrageenan paw edema ([2]; reference drug at 0.011 mmol/kg): 47%

SMILES: CC(=O)Oc1ccccc1C(=O)[O-].[Na+] [sodium acetylsalicylate, reference compound]
Analgesic activity (acetic acid writhing; reference drug at 1 mmol/kg): 93.4%

Continued, in another order:

Highest Conc. (mole fraction) w/ % inhibition (iPLA2; [4]): 0.020: 31% ± 6%
SMILES: CCNC(=O)C(=O)CC [OA22]

Highest Conc. (mole fraction) w/ % inhibition (iPLA2; [4]): 0.020: 43% ± 4%
SMILES: CCC/C=C\CCNC(=O)C(=O)CC [OA23]

Highest Conc. (mole fraction) w/ % inhibition (iPLA2; [4]): 0.020: 60% ± 6%
SMILES: CCC/C=C\CCNC(=O)C(=O)CC [OA24]

Highest Conc. (mole fraction) w/ % inhibition (cPLA2; Table 4, cPLA2, at 0.091 mole fraction): cPLA2: 0.091: 41% iPLA2: N/A
Inhibition of cPLA2 (cPLA2): fairly poor inhibitor
SMILES: CCC(=O)C(=O)N[C@H]1CCC(=O)OC1 [OA25]
XI(50) (mole fraction) (iPLA2; Table 4): C PLA2: N.D. I PLA2: 0.0142 ± 0.0004 mole fraction

XI(50) (mole fraction) (iPLA2; Table 4): 0.018 ± 0.002 mole fraction
XI(50) (mole fraction) (cPLA2; Table 4, cPLA2): 0.028 ± 0.017 mole fraction
Inhibition of cPLA2 (cPLA2): does
SMILES: CCNC(=O)OC[C@H](CCC(=O)OC)NC(=O)C(=O)CC [OA26]

Inhibition of cPLA2 (cPLA2): essentially no measurable inhibition
SMILES: CCCCCCCCCCC(=O)C(=O)N[C@H](CCC(=O)O)COC(=O)NCC [OA32, 5-ethylcarbamoyloxy-4-(R)-(2-oxo-dodecanoylamino)-pentanoic Acid]

Inhibition of cPLA2 (cPLA2): do not inhibit
SMILES: COC(=O)CCCNC(=O)C(=O)CCCc1ccccc1 [OA34]

Inhibition of cPLA2 (cPLA2): lack of inhibition
SMILES: O=C(O)CCCNC(=O)C(=O)CCCCc1ccccc1 [OA35, 4-(2-Oxo-6-phenyl-hexanoylamino)-butyric Acid]

Inhibition of cPLA2 (cPLA2): lack of inhibition
SMILES: O=C(O)CCCNC(=O)C(=O)CCCc1ccccc1 [OA36, 4-(2-Oxo-5-phenyl-pentanoylamino)-butyric Acid]
